# Results from US20080287323A1, “Treatment and Reuse of Oilfield Produced Water” (priority 2007, published 2008).
# Test system: bacteria and/or enzymes in the produced water
# Assay: Fann 50 viscosity test of guar or CMHPG gels prepared from pretreated oilfield produced water
# Conditions: similar borate-crosslinked guar gels versus "as is" produced water
# Protocol: Example of produced water treated with zirconyl chloride: Produced water PW4 was treated with 0.36 mL/L of zirconyl chloride solution M14. The mixture was stirred and then let stand for 30 minutes or more. Gels comprising borate-crosslinked guar were prepared with 8.8 mL/L M1, 6.0 mL/L M10, and 2.5 mL/L M11, in both the untreated and the M14-treated PW4 produced water. The viscosities of the fluids were tested with a Fann 50 viscometer.
# Example of produced water treated with zirconium tetrachloride (ZTC): Produced water PW5-1 was treated with 1 mL/L of an aqueous solution of ZTC (containing an equivalent of 7.0 wt % ZrO2), stirred and then let stand for 1 day. Gels comprising borate-crosslinked guar were prepared with 8.8 mL/L M1, 6.0 mL/L M10 and 2.5 mL/L M11, using the treated (ES5) and untreated water (PW5-1, as is), and the viscosity of the fluids was tested with a Fann 50 viscometer at 93° C.
# Examples of produced water treated with other inorganic heavy metal ions: Gels of borate-crosslinked guar were prepared from 8.8 mL/L M1, 6.0 mL/L M10 and 2.5 mL/L M11, added to two samples of BaCl2-treated PW6-1 produced water—0.28 g/L BaCl2 in ES6 and 3.4 g/L BaCl2 in ES7, followed by individual stirring for 30 minutes. […]
structure (smiles),measurement,value
[Cl][Cu][Cl] [CuCl2],effect of produced water treatment on gel viscosity (in words),did not obviously improve the viscosity
